Measurements published in US12605539B2, “Methods and systems for delivering drugs through skin of a body” (PASSPORT TECHNOLOGIES, INC., priority 2019, dated 2026).
Values belong to the compound of their own block, whether it stands above or below them.

Legend:
Assay type in all cases: in vivo, hairless Guinea pigs
[1] = Blood concentration of polysaccharide (Fondaparinux) after microporation patch (FIG. 13); settings: 4 ms pulses
Description: The patch 102 used for FIG. 13 graphs 1300 and 1320 has a nonwoven matrix, a thickness of 180 μm, weight of 18 g/m^2, WHC of 17 mg/cm^2, a drug of 0.01 mg/cm^2, and a total solids level of 6.1 mg/cm^2. An energy pulse of 6.3 mJ and 5.2 mJ per filament to create between about 200 and 400 pathways via microporation having a 1 cm^2 treated area of between about 5 and 10% per square centimeter of skin, respectively.
(§1) The graph 1300 includes the concentration of the polysacharride (for example, Fondaparinux) in micrograms/milliliter (μg/mL) along the y-axis and time in hours (hr) along the x-axis. […] The line 1302 represents the patch 102 having a formulation of 2.5 mg of the polysacharride applied with the patch 102 and microporation parameters described above. The line 1304 represents the patch 102 having a formulation of 5.0 mg of the polysacharride applied with the patch 102 and microporation parameters described above. The line 1306 represents the patch 102 having a formulation of 7.5 mg of the polysacharride applied with the patch 102 and microporation parameters described above. Each of the three lines 1302, 1304, and 1306 follow the same general trend of increasing to a peak concentration value and then gradually decreasing in concentration. The line 1306 has the highest concentration values, followed by line 1304 and then line 1302.
as §1, with “1320” for “1300”, “1322” for “1302”, “1324” for “1304”, “1326” for “1306”, “1322, 1324,” for “1302, 1304,”, “1322.” for “1302.”

[2] = Blood concentration of peptide (Teriparatide) after microporation patch (FIG. 17); settings: hairless, guinea pig, topical, API 0.2 mg/cm^2 + 0.5 mg sucrose; for bioavailability: read-out: bioavailability (BA); for Cmax: read-out: maximum concentration (Cmax)
Description: Table 15 identifies two groups (group 4 and group 6) that both use stainless steel filaments 200 and create 200 and 400 pathways, respectively, having applied an energy pulse of 9.3 mJ per filament with a treated area of about 10% per square centimeter of skin for 0.5 cm2 and 1.0 cm^2, respectively. The patch 102 used for the administration of the peptide shown in graph 1700 has a thickness of 38 μm, a weight of 12 g/m^2, a WHC of 4 mg/cm^2, an API of 0.2 mg/cm^2, and a total solid weight of about 0.7 mg/cm^2.
The graph 1700 includes the concentration of the peptide in ng/mL along the y-axis and time in hours (hr) along the x-axis. […] The line 1702 represents the patch 102 and microporation parameters of group 4 described above. The line 1704 represents the patch 102 and microporation parameters of group 6 described above.

[3] = Blood concentration of Somatropin after microporation patch (FIG. 18); settings: patch 0.5 mg, 1.0 cm^2
From the text: The microporation occurs according to the parameters in Table 17. […] 200 Wide filaments are double the width of standard one (2×50 micrometers) so the energy pulse of 5.2 mJ and 9.3 mJ per filament, thus providing the same current density/flux, and similar power used.
The graph 1800 includes the concentration of the peptide in ng/mL along the y-axis and time in hours (hr) along the x-axis. […] The line 1802 represents the group 1 parameters from Tables 17 and 18. The line 1804 represents the group 2 parameters from Tables 17 and 18. The line 1806 represents the group 3 parameters from Tables 17 and 18. The line 1808 represents the group 4 parameters from Tables 17 and 18. Each of the four lines 1802, 1804, 1806, and 1808 follow the same general trend of increasing to a peak concentration value and then gradually decreasing in concentration. The line 1808 generally has the highest concentration values, followed by line 1802, then line 1804, and finally line 1806. It is noted that the line 1804 exceeds line 1806 from between about 2 hours to about 3 hours.

[4] = 0.2 mg/cm^2, group 4: 200 pores, 0.5 cm^2, 9.3 mJ/filament
[5] = 0.2 mg/cm^2, group 6: 400 pores, 1.0 cm^2, 9.3 mJ/filament
[6] = group 1: 400 pores, 5.7 mJ/filament (Table 17)
[7] = group 2: 400 pores, 9.3 mJ/filament
[8] = group 3: 200 wide pores, 5.2 mJ/filament
[9] = group 4: 200 wide pores, 9.3 mJ/filament

area under the curve (AUC) ([1]; patch 2.5 mg, 200 pathways): 72800 ng·h/mL
bioavailability ([1]; patch 2.5 mg, 200 pathways): 170.9%
maximum concentration ([1]; patch 2.5 mg, 200 pathways): 5.1 µg/mL
AUC ([1]; patch 2.5 mg, 400 pathways): 97300 ng·h/mL
bioavailability ([1]; patch 2.5 mg, 400 pathways): 228.5%
maximum concentration ([1]; patch 2.5 mg, 400 pathways): 8.0 µg/mL
AUC ([1]; patch 5.0 mg, 200 pathways): 100900 ng·h/mL
bioavailability ([1]; patch 5.0 mg, 200 pathways): 118.4%
maximum concentration ([1]; patch 5.0 mg, 200 pathways): 6.7 µg/mL
AUC ([1]; patch 5.0 mg, 400 pathways): 125200 ng·h/mL
bioavailability ([1]; patch 5.0 mg, 400 pathways): 146.9%
maximum concentration ([1]; patch 5.0 mg, 400 pathways): 10.5 µg/mL
AUC ([1]; patch 7.5 mg, 200 pathways): 152300 ng·h/mL
bioavailability ([1]; patch 7.5 mg, 200 pathways): 119.2%
maximum concentration ([1]; patch 7.5 mg, 200 pathways): 9.1 µg/mL
AUC ([1]; patch 7.5 mg, 400 pathways): 145800 ng·h/mL
bioavailability ([1]; patch 7.5 mg, 400 pathways): 114.1%
maximum concentration ([1]; patch 7.5 mg, 400 pathways): 11.5 µg/mL
Compound: CO[C@H]1O[C@H](COS(=O)(=O)O)[C@@H](O[C@@H]2O[C@@H](C(=O)O)[C@@H](O[C@H]3O[C@H](COS(=O)(=O)O)[C@@H](O[C@@H]4O[C@H](C(=O)O)[C@@H](O[C@H]5O[C@H](COS(=O)(=O)O)[C@@H](O)[C@H](O)[C@H]5NS(=O)(=O)O)[C@H](O)[C@H]4O)[C@H](OS(=O)(=O)O)[C@H]3NS(=O)(=O)O)[C@H](O)[C@H]2OS(=O)(=O)O)[C@H](O)[C@H]1NS(=O)(=O)O [Fondaparinux]

AUC [2, 4]: 3260 ng·h/mL
bioavailability [2, 4]: 37.4%
Cmax [2, 4]: 9.16 ng/mL
AUC [2, 5]: 2210 ng·h/mL
bioavailability [2, 5]: 25.4%
Cmax [2, 5]: 11.2 ng/mL
Compound: CC[C@H](C)[C@H](NC(=O)[C@H](CCC(=O)O)NC(=O)[C@H](CO)NC(=O)[C@@H](NC(=O)[C@@H](N)CO)C(C)C)C(=O)N[C@@H](CCC(N)=O)C(=O)N[C@@H](CC(C)C)C(=O)N[C@@H](CCSC)C(=O)N[C@@H](Cc1cnc[nH]1)C(=O)N[C@@H](CC(N)=O)C(=O)N[C@@H](CC(C)C)C(=O)NCC(=O)N[C@@H](CCCCN)C(=O)N[C@@H](Cc1cnc[nH]1)C(=O)N[C@@H](CC(C)C)C(=O)N[C@@H](CC(N)=O)C(=O)N[C@@H](CO)C(=O)N[C@@H](CCSC)C(=O)N[C@@H](CCC(=O)O)C(=O)N[C@@H](CCCN=C(N)N)C(=O)N[C@H](C(=O)N[C@@H](CCC(=O)O)C(=O)N[C@@H](Cc1c[nH]c2ccccc12)C(=O)N[C@@H](CC(C)C)C(=O)N[C@@H](CCCN=C(N)N)C(=O)N[C@@H](CCCCN)C(=O)N[C@@H](CCCCN)C(=O)N[C@@H](CC(C)C)C(=O)N[C@@H](CCC(N)=O)C(=O)N[C@@H](CC(=O)O)C(=O)N[C@H](C(=O)N[C@@H](Cc1cnc[nH]1)C(=O)N[C@@H](CC(N)=O)C(=O)N[C@@H](Cc1ccccc1)C(=O)O)C(C)C)C(C)C [Teriparatide]

Compound: Somatropin
AUC [3, 6]: 87.1 ng·h/mL
Cmax [3, 6]: 20.4 ng/mL
Tmax [3, 6]: 1.3 h
bioavailability (BA) [3, 6]: 35.8%
AUC [3, 7]: 90.1 ng·h/mL
Cmax [3, 7]: 16.1 ng/mL
Tmax [3, 7]: 1.8 h
bioavailability (BA) [3, 7]: 37.0%
AUC [3, 8]: 78.1 ng·h/mL
Cmax [3, 8]: 16.4 ng/mL
Tmax [3, 8]: 1.5 h
bioavailability (BA) [3, 8]: 32.1%
AUC [3, 9]: 94.9 ng·h/mL
Cmax [3, 9]: 22.6 ng/mL
Tmax [3, 9]: 1.5 h
bioavailability (BA) [3, 9]: 39.0%
